For experiment [1], the system named is HSV-1. The experiment can be described thus: MTT assay for antiviral activity against HSV-1 in Vero cells. Type of experiment: cell-based, Herpes simplex virus. The following applies: for antiviral activity against HSV-1: pure compounds from C18 HPLC of active fractions; for cells subjected to infection protected: test concentration 2.5 μg/mL, Vero cells, 50 pfu virus, five days incubation. On the procedure: Antiviral activity of the halovirs was determined in vitro against the. HSV-I by an MTT assay (Hitoshi Takeuchi, An application of tetrazolium (MTT) calorimetric assay for screening of anti-herpes simplex virus compounds, Journal of Virological Methods, 33 (1991) 61-71), modified as follows. Vero cells were plated at a concentration of 10,000 cells/well in 100 μL of minimum essential medium (MEM) containing 5% fetal bovine serum (FBS) in 96-well plates. The cells were incubated overnight at 37° C. and 5% CO2. The media was removed by aspiration, and 100 μL of phosphate buffered saline (PBS) was added to each well and then aspirated. The wells were treated with 100 μL of MEM containing 50 plaque forming units (pfu) of virus and incubated for one hour. Each well was then overlayed with 100 μL of media containing 2% FBS and serial dilutions of an appropriate halovir solution. The halovir solution was previously prepared by dissolving the halovir in DMSO. After incubation for five days, each well was treated with 20 μL of a solution of 10 mg/mL of MTT in PBS. […] The media was carefully aspirated, and 100 μL of acidified isopropanol was added to dissolve any formazan produced. Acidified isopropanol solution is prepared by adding 50 mL Triton X100 and 2 mL concentrated HCL to 450 mL isopropanol. The optical density of the wells at 550 nm was determined using an ELISA plate reader. The amount of formazan present is directly proportional to the number of surviving cells in a given well. The amount of formazan were spectrophotometrically measured in wells with no antiviral agent and virus to establish a quantitative standard for 100% cell survival. Similarly wells with only virus were measured and used to establish a quantitative standard for 0% cell survival. At a test concentration of 2.5 μg/mL, Halovirs A, B, C, and D protected 50%, 40%, 33%, and 55%, respectively, of the cells subjected to infection.

For experiment [2], the system named is HSV-1. Type of experiment: cell-based, Herpes simplex virus. The method, then:
Four experimental solutions were prepared.
Solution 1: Viral Inactivation
HSV-1 was diluted to 50,000 pfu/ml in 1.35 mL MEM with 0% Fetal Bovine Serum (0% MEM). This was treated with 8.2 μL of a solution of Halovir A dissolved in DMSO at a concentration of 25 mg/mL.
Solution 2: DMSO Inactivation Control
Solution 2 was prepared in an identical manner as solution 1, except that pure DMSO was added to the viral suspension.
This experiment provides a baseline for 100% cell survival. Solution 3 was prepared with 1.35 mL 0% MEM with 8.2 μL DMSO.
Solution 4: Normal Assay Conditions
Virus was diluted in 1.36 mL 0% MEM to a final concentration of 50,000 pfu/mL. No DMSO or Halovir A was added.
All solutions were vortexed for 30 seconds and then shaken at ambient temperature for 2.5 hours. They were then vortexed for 30 seconds, and 100 μL of each was diluted with 9.9 mL of 0% MEM (100×dilution). The diluted solutions are herein referred to as solutions 1-4.
96-well microtiter plates were prepared with Vero cells overnight, washed with PBS, and aspirated as previously described. 100 μL of Solution 1 was added to each well of a microtiter plate containing cells. This was repeated for Solutions 2-4. The plates were incubated at 37° C. and 5% CO2. After one hour, experiment plates prepared with Solutions 1-3 were overlaid with 100 μL of 2% MEM. […]

Read-outs that look alike come from different tables or passages of the source. Non-standard residues stand in square brackets, D forms with d. Residues, ends and D or L forms follow the SMILES beside them. *: point of attachment. Myristoyl = CCCCCCCCCCCCCC(=O)*; Hyp = O=C(O)[CH]1C[CH](O)CN1; Leu(ol) = CC(C)C[CH](N)CO; X1 = CC(=O)OCC(CC(C)C)N*; Aib = CC(C)(N)C(=O)O

For the compound `CCCCCCCCCCCCCC(=O)NC(C)(C)C(=O)N1CC(O)CC1C(=O)NC(CC(C)C)C(=O)NC(C)C(=O)NC(CCC(N)=O)C(=O)NC(CO)CC(C)C` (stereo not drawn) [Halovir B, CH3(CH2)12C(O)-Aib-Hyp-Leu-Ala-Gln-Leu(OH)] (Myristoyl-[Aib][Hyp]LAQ[Leu(ol)]; configuration not given here), in the experiment with HSV-1 [1], the “antiviral activity against HSV-1” value is reported as “potent antiviral activity” and the “cells subjected to infection protected” value amounted to 40%.
Regarding `CCCCCCCCCCCCCC(=O)NC(C)(C)C(=O)N1CC(OC(C)=O)CC1C(=O)NC(CC(C)C)C(=O)NC(C(=O)NC(CCC(N)=O)C(=O)NC(COC(C)=O)CC(C)C)C(C)C` (stereo not drawn) [Halovir D, CH3(CH2)12C(O)-Aib-Hyp(OAc)-Leu-Val-Gln-Leu(OAc)] (Myristoyl-[Aib][Hyp](Ac)LVQ-X1; configuration not given here), the “cells subjected to infection protected” value in the experiment with HSV-1 [1] was 55%.
In the case of `CCCCCCCCCCCCCC(=O)NC(C)(C)C(=O)N1CCCC1C(=O)NC(CC(C)C)C(=O)NC(C(=O)NC(CCC(N)=O)C(=O)NC(CO)CC(C)C)C(C)C` (stereo not drawn) [Halovir C, CH3(CH2)12C(O)-Aib-Pro-Leu-Val-Gln-Leu(OH)] (Myristoyl-[Aib]PLVQ[Leu(ol)]; configuration not given here), in the experiment with HSV-1 [1], the “antiviral activity against HSV-1” value was “potent antiviral activity” and the “cells subjected to infection protected” value amounted to 33%.
Regarding `CCCCCCCCCCCCCC(=O)NC(C)(C)C(=O)N1CC(O)CC1C(=O)NC(CC(C)C)C(=O)NC(C(=O)NC(CCC(N)=O)C(=O)NC(CO)CC(C)C)C(C)C` (stereo not drawn) [Halovir A, CH3(CH2)12C(O)-Aib-Hyp-Leu-Val-Gln-Leu(OH)] (Myristoyl-[Aib][Hyp]LVQ[Leu(ol)]; configuration not given here), in the experiment with HSV-1 [1], the “antiviral activity against HSV-1” value is listed as “potent antiviral activity” and the “cells subjected to infection protected” value is on record as 50%. Also, the “mean optical density at 550 nm (OD)” value with HSV-1 [2] (Solution 1: HSV-1 treated with Halovir A for 2.5 hours, 100x dilution, then added to Vero cells, mean of 80 wells) amounted to 1.18. Besides, in the experiment with HSV-1 [2] (Solution 4: normal assay conditions, untreated virus, overlay with 2% MEM containing 1.5 μg/mL Halovir A after one hour), the “mean optical density at 550 nm (OD)” value is 0.32.

The values are drawn from patent US6458766B1, “Halovir, an antiviral marine natural product, and derivatives thereof” (The Regents of the University of California, priority 1998, dated 2002).
